From patent EP0406685A1, “Substituted polysaccharides, method for their preparation as well as their use in prophylaxis and treatment of viral diseases” (HOECHST AKTIENGESELLSCHAFT, priority 1989, dated 1991)

System: Friend Leukämie Virus
Assay: FLV model of the mouse (Friend leukaemia virus infection, relative spleen weight)
Type: in vivo
Details: i.p.; for rel.Milzgewicht in % Körpergew.: start 2 days after infection, spleen 14 days after infection
Excerpt: Da für die HIV-Infektion des Menschen kein überzeugendes Infektionsmodell bei Labortieren existiert, muß bei der Prüfung von Chemotherapeutika auf Infektionen mit anderen Retroviren zurückgegriffen werden. Im vorliegenden Falle wurde die Infektion der Maus mit dem Friend Leukämie Virus gewählt.
Normale Labormäuse (NMRI = Naval Medical Research Institute) wurden durch intravenöse Injektion mit Friend-Virus enthaltendem Mäuseserum infiziert. Bei den unbehandelten Kontrolltieren entwickelt sich als Symptom der Infektion innerhalb von 2 Wochen bzw. 3 Wochen eine deutliche Vergrößerung von Milz und Leber. Die Behandlung erfolgt über 10 Tage bei intraperitonealer Applikation und über 16 Tage bei oraler Applikation der Testsubstanzen. Bei intraperitonealer Gabe der Testsubstanzen beginnt die Behandlung 48 Stunden nach der Infektion, bei peroraler Gabe der Testsubstanz 4 Tage vor der Infektion. Am 14. Tag nach Infektion werden die Tiere durch Luxation der Halswirbel getötet und geöffnet. Die Milz wird entnommen und gewogen. Als Meßparameter der therapeutischen Wirksamkeit wird das Milzgewicht der behandelten Tiere mit den der unbehandelten Infektionskontrolle in Relation gesetzt.
Für die orale Applikation werden die Prüfsubstanzen in Trinkwasser gelöst. Alle 24 Stunden werden die Trinkwasserbehälter mit jeweils 100 ml Inhalt gewechselt. Aus dem täglich ermittelten Verbrauch an Trinkwasser pro Versuchskollektiv wird die durchschnittliche Dosismenge errechnet, die einer Maus pro 24 Stunden appliziert wurde.
Während bei uninfizierten, ausgewachsenen Labormäusen (20 - 24 g Körpergewicht) die Milz weniger als 1 % des Körpergewichtes wiegt, erreicht bei infizierten Tieren die Milz am Ende des Versuchs etwa bis zu 10 % des Körpergewichtes.
Als Vergleichspräparate dienen Suramin (= 3,3′-Ureylen-bis-(8-(3-benzamido-4-methylbenzamido)-naphthalin-1,3,5-trisulfonsäure|) bei intraperitonealer Gabe bzw. Pentosanpolysulfat bei intraperitonealer und oraler Gabe.

`Cc1ccc(C(=O)Nc2ccc(S(=O)(=O)O)c3cc(S(=O)(=O)O)cc(S(=O)(=O)O)c23)cc1NC(=O)c1cccc(NC(=O)Nc2cccc(C(=O)Nc3cc(C(=O)Nc4ccc(S(=O)(=O)O)c5cc(S(=O)(=O)O)cc(S(=O)(=O)O)c45)ccc3C)c2)c1` [Suramin, 3,3′-Ureylen-bis-(8-(3-benzamido-4-methylbenzamido)-naphthalin-1,3,5-trisulfonsäure|)] was tested, and the “rel.Milzgewicht in % Körpergew.” value (10 x 0,1 mg/Maus, second series (Kontrolle 7,25)) was 5,68 % Körpergew, the “Anzahl überlebender Mäuse n” value (10 x 0,1 mg/Maus, second series (Kontrolle 10)) was 10 and the “rel.Milzgewicht in % Körpergew.” value (10 x 1,0 mg/Maus, first series (Kontrolle 6,41)) was 4,96 % Körpergew. For the same compound, the “Anzahl überlebender Mäuse n” value (10 x 1,0 mg/Maus, first series (Kontrolle 10)) was 10.
